Experimental data reported in US11939295B1, “6-(3-hydroxyphenyl)-2-methoxy-4-(3-methylphenyl)nicotinonitrile as an antimicrobial compound” (KING FAISAL UNIVERSITY, priority 2023, dated 2024).

Assays:
Type in all cases: cell-based
Details in all cases: after 10, 20, 40 and 60 minutes at all dilutions 1:100, 1:200, 1:400, 1:800
Staphylococcus aureus = assay: Antimicrobial testing by agar dilution, Staphylococcus aureus
Experimental: (§1) The antimicrobial properties of the 6-(3-hydroxyphenyl)-2-methoxy-4-(3-methylphenyl)nicotinonitrile (4) were studied by the method of agar dilution. Test solutions of each compound were prepared in concentration of 1% using dimethylformamide as a solvent then they are diluted in physiological solution to obtain the final experimental dilutions 1:100, 1:200, 1:400, 1:800. The effect of these substances were compared with furacillin in a controllable study. The testing microbes used were gram positive bacteria Staphylococcus aureus, gram negative bacteria Escherichia coli, Pseudomonas aeruginosa and Candida albicans fungi were taken. The experiments used for this survey were meat-pentonlu agar (EPA) for cultivation of bacteria and Saburo environment for fungi. Each experiment used 1 ml of test solution on each plate 500 min. Add 2 drops of emulsified with microbes feel. All experimental samples were taken from the agar after 10, 20, 40, 60 minutes in the environment on the basis of Patrk planted. Bacteria were cultivated at a temperature of 37° C. for 1 day and the mushroom was kept in a thermostat for 2 hours at a temperature of 28° C. in the. Then results were checked.

Candida albicans = assay: Antimicrobial testing by agar dilution, Candida albicans
Experimental: as §1

Escherichia coli = assay: Antimicrobial testing by agar dilution, Escherichia coli
Experimental: as §1

Pseudomonas aeruginosa = assay: Antimicrobial testing by agar dilution, Pseudomonas aeruginosa
Experimental: as §1

Measured: inhibition activity

COc1nc(-c2cccc(O)c2)cc(-c2cccc(C)c2)c1C#N [6-(3-hydroxyphenyl)-2-methoxy-4-(3-methylphenyl)nicotinonitrile]
highest inhibition activity: all assays above
